Like-named read-outs stand apart in the source and are kept apart here.
What was measured:
Test in all cases: Ras GTP binding domain inhibition assay (labeled-GTP competition, cell-free)
Rho-A = Rho-A (Homo sapiens, UniProt P61586); parameters: made in house
From the text: (§1) This is a competitive binding assay. It involves the immobilization of a protein on solid phase, interaction with a small molecule drug candidate, and then competitive binding with a labeled native GTP or GDP ligand.
(§2) In theory, the assay is suitable for use with any GTP or GDP binding protein.
(§3) The following method was developed as specific assay for the following proteins: KRas wild type, KRas Q61H mutant, KRas G12C mutant, KRas G12D mutant, Rac-1, and Rho-A.
(§4) The small GTPases proteins: KRas wild type. KRas Q61H mutant, KRas G12C mutant, KRas G12D mutants, Rac-1, and Rho-A were expressed as His-tagged proteins. In addition, the Guanosine nucleotide Exchange Factor (GEF) Sos protein (residues 556-1049) was expressed as a His-tagged protein. In cells, the guanine nucleotide exchange factor Sos protein promotes activation of Ras proteins by stimulating an exchange of GDP for GTP. The inclusion of Sos to the Ras GTP binding domain inhibition assay may be considered as an alternative representation of physiological cellular conditions for evaluating the inhibitory activity of some of the tested small molecules.
(§5) For the assay, all purified small GTPases proteins were diluted in Buffer-I or Buffer-II to a final concentration of 10-30 μg/mL. 200 μL of each diluted protein was added to a nickel-coated 96-well plate and incubated overnight at 4° C. Then the protein solution was discarded and 200 μL of Buffer-I or Buffer-II was added to each well in the presence of 1% DMSO. Compounds to be tested were added to the protein-coated wells at final concentration of 20 μM, and incubated for 3 hours at room temperature with and without 10-30 μg/mL of Sos added to the final hour of the incubation. When performing IC50 measurements a serial dilution of all tested concentrations was added. Then Cy3-GTP or Cy5-GTP was added to each well to a final concentration of 100 nM. The labeled GTP was incubated for 45 minutes at room temperature. Following GTP incubation, wells were washed 3× in Buffer-I or Buffer-II and 200 μL of Buffer-I or Buffer-II was added to each well. Following washes, the amount of bound labeled-GTP was measured using a SpectraMax M3 (Molecular Devices).

KRas wild type = KRas wild type (Homo sapiens, UniProt P01116); parameters: made in house
From the text: as §1, §2, §3, §4, §5

Rac-1 = Rac-1 (Homo sapiens, UniProt P63000); parameters: made in house
From the text: as §1, §2, §3, §4, §5

KRas G12D mutant = target: T1, KRas G12D mutant (Homo sapiens, UniProt P01116, G12D)
T1 construct: made in house
From the text: as §1, §2, §3, §4, §5

KRas G12C mutant = target: T2, KRas G12C mutant (Homo sapiens, UniProt P01116, G12C)
T2 construct: made in house
From the text: as §1, §2, §3, §4, §5

KRas Q61H mutant = target: T3, KRas Q61H mutant (Homo sapiens, UniProt P01116, Q61H)
T3 construct: made in house
From the text: as §1, §2, §3, §4, §5

[1] = with SOS, read-out: Rho-A + SOS: % inh.
[2] = without SOS, read-out: Rho-A: % inh.
[3] = with SOS, read-out: KRas wild type + SOS: % inh.
[4] = without SOS, read-out: KRas wild type: % inh.
[5] = with SOS, read-out: Rac-1 + SOS: % inh.
[6] = without SOS, read-out: Rac-1: % inh.
[7] = with SOS, read-out: KRas G12D mutant + SOS: % inh.
[8] = without SOS, read-out: KRas G12D mutant: % inh.
[9] = with SOS, read-out: KRas G12C mutant + SOS: % inh.
[10] = without SOS, read-out: KRas G12C mutant: % inh.
[11] = with SOS, read-out: KRas Q61H mutant + SOS: % inh.
[12] = without SOS, read-out: KRas Q61H mutant: % inh.

SMILES	inhibition at 20 µM (Rho-A; [1])	inhibition at 20 µM (Rho-A; [2])	inhibition at 20 µM (KRas wild type; [3])	inhibition at 20 µM (KRas wild type; [4])	inhibition at 20 µM (Rac-1; [5])	inhibition at 20 µM (Rac-1; [6])	inhibition at 20 µM (KRas G12D mutant; [7])	inhibition at 20 µM (KRas G12D mutant; [8])	inhibition at 20 µM (KRas G12C mutant; [9])	inhibition at 20 µM (KRas G12C mutant; [10])	inhibition at 20 µM (KRas Q61H mutant; [11])	inhibition at 20 µM (KRas Q61H mutant; [12])	IC50 (KRas Q61H mutant; with SOS)
CO[C@H]1CC[C@@H](Nc2nc(C(=O)NC(C)C)nc3sccc23)C1 (racemic) [Compound 13, Rac-N-isopropyl-4-(((1R,3S)-3-methoxycyclopentyl)amino)thieno[2,3-d]pyrimidine-2-carboxamide]	1 to 25%	1 to 25%	1 to 25%	0%	0%	1 to 25%	0%	1 to 25%	0%	0%	0%	0%	> 10 µM
COCCNC(=O)c1nc(N[C@@H]2CC[C@H](OC)C2)c2ccsc2n1 (racemic) [Compound 14, rac-4-(((1R,3S)-3-Methoxycyclopentyl)amino)-N-(2-methoxyethyl)thieno[2,3-d]pyrimidine-2-carboxamide]	1 to 25%	1 to 25%	0%	0%	0%	0%	1 to 25%	1 to 25%	0%	0%	1 to 25%	0%	> 10 µM
CO[C@H]1CC[C@@H](Nc2nc(C(=O)Nc3ccccc3)nc3sccc23)C1 (racemic) [Compound 15, rac-4-(((1R,3S)-3-Methoxycyclopentyl)amino)-N-phenylthieno[2,3-d]pyrimidine-2-carboxamide]	0%	0%	0%	1 to 25%	0%	0%	0%	0%	0%	1 to 25%	0%	1 to 25%	> 10 µM
CO[C@H]1CC[C@@H](Nc2nc(C(=O)Nc3ccccn3)nc3sccc23)C1 (racemic) [Compound 16, rac-4-(((1R,3S)-3-Methoxycyclopentyl)amino)-N-(pyridin-2-yl)thieno[2,3-d]pyrimidine-2-carboxamide]	1 to 25%	0%	0%	1 to 25%	0%	1 to 25%	1 to 25%	1 to 25%	1 to 25%	1 to 25%	0%	1 to 25%	> 10 µM
CO[C@H]1CC[C@@H](Nc2nc(C(N)=O)nc3sc(-c4ccn(C(C)C)n4)cc23)C1 (racemic) [Compound 17, Rac-6-(1-isopropyl-1H-pyrazol-3-yl)-4-(((1R,3S)-3-methoxycyclopentyl)amino)thieno[2,3-d]pyrimidine-2-carboxamide]	0%	26 to 50%	1 to 25%	1 to 25%	1 to 25%	0%	0%	0%	0%	0%	0%	1 to 25%	> 10 µM
CO[C@H]1CC[C@@H](Nc2nc(C(=O)N3CCCC3)nc3sccc23)C1 (racemic) [Compound 25, Rac-(4-(((1R,3S)-3-Methoxycyclopentyl)amino)thieno[2,3-d]pyrimidin-2-yl)(pyrrolidin-1-yl)methanone]	0%	0%	0%	0%	0%	0%	0%	0%	0%	0%	0%	0%	
Cc1c(-c2ccn(C(C)C)n2)sc2nc(-c3nccn3C)nc(NC3CCOC3)c12 (racemic) [Compound 37, rac-6-(1-Isopropyl-1H-pyrazol-3-yl)-5-methyl-2-(1-methyl-1H-imidazol-2-yl)-N-(tetrahydrofuran-3-yl)thieno[2,3-d]pyrimidin-4-amine]	76 to 100%	76 to 100%	76 to 100%	76 to 100%	76 to 100%	76 to 100%	76 to 100%	76 to 100%	76 to 100%	76 to 100%	76 to 100%	76 to 100%	
COCC1COCCN1c1nc(-c2nccn2C)nc2sc(-c3ccn(C(C)C)n3)c(C)c12 (racemic) [Compound 41, rac-4-(6-(1-Isopropyl-1H-pyrazol-3-yl)-5-methyl-2-(1-methyl-1H-imidazol-2-yl)thieno[2,3-d]pyrimidin-4-yl)-3-(methoxymethyl)morpholine]	76 to 100%	51 to 75%	51 to 75%	51 to 75%	76 to 100%	76 to 100%	26 to 50%	0%	51 to 75%	51 to 75%	26 to 50%	51 to 75%	
COCC1CN(c2nc(-c3nccn3C)nc3sc(-c4ccn(C(C)C)n4)c(C)c23)CCO1 (racemic) [Compound 45, rac-4-(6-(1-Isopropyl-1H-pyrazol-3-yl)-5-methyl-2-(1-methyl-1H-imidazol-2-yl)thieno[2,3-d]pyrimidin-4-yl)-2-(methoxymethyl)morpholine]	76 to 100%	76 to 100%	76 to 100%	76 to 100%	76 to 100%	76 to 100%	76 to 100%	76 to 100%	76 to 100%	51 to 75%	76 to 100%	76 to 100%	
Cc1c(-c2ccn(C(C)C)n2)sc2nc(-c3nccn3C)nc(NCCC3CCC(=O)N3)c12 (racemic) [Compound 56, rac-5-(2-((6-(1-Isopropyl-1H-pyrazol-3-yl)-5-methyl-2-(1-methyl-1H-imidazol-2-yl)thieno[2,3-d]pyrimidin-4-yl)amino)ethyl)pyrrolidin-2-one]		76 to 100%	76 to 100%	76 to 100%		76 to 100%	76 to 100%	26 to 50%	76 to 100%	76 to 100%	76 to 100%	51 to 75%	
Cc1c(-c2ccn(C(C)C)n2)sc2nc(-c3nccn3C)nc(N3CCC(COC(C)C)C3)c12 (racemic) [Compound 62, rac-4-(3-(Isopropoxymethyl)pyrrolidin-1-yl)-6-(1-isopropyl-1H-pyrazol-3-yl)-5-methyl-2-(1-methyl-1H-imidazol-2-yl)thieno[2,3-d]pyrimidine]		76 to 100%	51 to 75%	51 to 75%		1 to 25%	51 to 75%	26 to 50%	51 to 75%		51 to 75%	76 to 100%	

Reference: patent US20230227466A1, “SUBSTITUTED THIENOPYRIMIDINES THAT INTERACT WITH THE RAS SUPERFAMILY FOR THE TREATMENT OF CANCERS, INFLAMMATORY DISEASES, RASOPATHIES, AND FIBROTIC DISEASE” (SHY Therapeutics, LLC, priority 2020, published 2023)
